Test results reported in paper PMC9090415, “Discovery of small molecule inhibitors of Plasmodium falciparum apicoplast DNA polymerase” (Journal of Enzyme Inhibition and Medicinal Chemistry, 2022).

Target: P. falciparum apicoplast DNA polymerase (Pf-apPOL) (Plasmodium falciparum, UniProt Q8ILY1)
Experiment: Fluorescence-based high-throughput DNA polymerase assay (molecular beacon), primary screen and dose-response
Assay type: biochemical
Procedure, shortened: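 Single-point screening used 10 µM compound with 20 nM polymerase, 20 nM hairpin substrate and 6 µM dNTPs for 90 min at 25 °C. Confirmatory titrations (2.5–80 µM) followed fluorescence at three times, and IC50 was derived from a fit including a cooperativity term n.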

Chain of P. falciparum apicoplast DNA polymerase (Pf-apPOL) (Q8ILY1 entry or part of it): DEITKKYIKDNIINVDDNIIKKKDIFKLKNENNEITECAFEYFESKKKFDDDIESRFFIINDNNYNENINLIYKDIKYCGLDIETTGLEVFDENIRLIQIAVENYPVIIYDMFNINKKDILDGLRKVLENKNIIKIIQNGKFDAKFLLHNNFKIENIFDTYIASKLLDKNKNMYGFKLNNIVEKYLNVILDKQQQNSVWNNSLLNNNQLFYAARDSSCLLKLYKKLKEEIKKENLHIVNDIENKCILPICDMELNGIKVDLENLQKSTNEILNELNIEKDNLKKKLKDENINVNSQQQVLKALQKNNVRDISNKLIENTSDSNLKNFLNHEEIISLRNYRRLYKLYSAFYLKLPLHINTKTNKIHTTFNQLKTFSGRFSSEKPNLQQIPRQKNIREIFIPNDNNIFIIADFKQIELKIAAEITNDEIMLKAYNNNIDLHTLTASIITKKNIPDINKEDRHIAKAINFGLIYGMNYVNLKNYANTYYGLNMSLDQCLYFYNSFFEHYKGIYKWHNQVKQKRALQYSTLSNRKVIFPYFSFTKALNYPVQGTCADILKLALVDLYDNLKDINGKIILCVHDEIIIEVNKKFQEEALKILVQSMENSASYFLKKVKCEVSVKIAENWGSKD

O=C(Nc1nnc(-c2ccno2)o1)c1ccc2c(c1)OCO2 [KU0171343]
DNA Pol (186 hits, value of the hit list (primary screen); unit not given; 90 min, 10 µM): 40 | % inhibition Apo pol 10' (DRC-1; 10'; concentration 2.5): 0.3504% | % inhibition Apo pol 10' (DRC-1; 10'; concentration 5): 4.323% | % inhibition Apo pol 10' (DRC-1; 10'; concentration 10): 19.3402% | % inhibition Apo pol 10' (DRC-1; 10'; concentration 20): 32.3938% | % inhibition Apo pol 10' (DRC-1; 10'; concentration 40): 61.4938% | % inhibition Apo pol 10' (DRC-1; 10'; concentration 80): 79.918% | % inhibition Apol 90' (DRC-1; 90'; concentration 2.5): -7.247% | % inhibition Apol 90' (DRC-1; 90'; concentration 5): -7.662% | % inhibition Apol 90' (DRC-1; 90'; concentration 10): 0.8301% | % inhibition Apol 90' (DRC-1; 90'; concentration 20): 8.774% | % inhibition Apol 90' (DRC-1; 90'; concentration 40): 33.5392% | % inhibition Apol 90' (DRC-1; 90'; concentration 80): 60.7945% | % inhibition apPOL 180' (DRC-1; 180'; concentration 2.5): -15.466% | % inhibition apPOL 180' (DRC-1; 180'; concentration 5): -16.6627% | % inhibition apPOL 180' (DRC-1; 180'; concentration 10): -10.0119% | % inhibition apPOL 180' (DRC-1; 180'; concentration 20): -7.297% | % inhibition apPOL 180' (DRC-1; 180'; concentration 40): 11.9639% | % inhibition apPOL 180' (DRC-1; 180'; concentration 80): 37.6873% | % inhibition Apo pol 5' (DRC-2, 5', concentration 2.5): 4.65% | % inhibition Apo pol 5' (DRC-2, 5', concentration 5): 2.76% | % inhibition Apo pol 5' (DRC-2, 5', concentration 10): 18% | % inhibition Apo pol 5' (DRC-2, 5', concentration 20): 19% | % inhibition Apo pol 5' (DRC-2, 5', concentration 40): 33% | % inhibition Apo pol 5' (DRC-2, 5', concentration 80): 26% | % inhibition Apol 40' (DRC-2, 40', concentration 2.5): -1.21% | % inhibition Apol 40' (DRC-2, 40', concentration 5): -4.25% | % inhibition Apol 40' (DRC-2, 40', concentration 10): 14% | % inhibition Apol 40' (DRC-2, 40', concentration 20): 14% | % inhibition Apol 40' (DRC-2, 40', concentration 40): 39% | % inhibition Apol 40' (DRC-2, 40', concentration 80): 51% | % inhibition ApPOL 90' (DRC-2, 90', concentration 2.5): -3.2% | % inhibition ApPOL 90' (DRC-2, 90', concentration 5): -8% | % inhibition ApPOL 90' (DRC-2, 90', concentration 10): 11% | % inhibition ApPOL 90' (DRC-2, 90', concentration 20): 10% | % inhibition ApPOL 90' (DRC-2, 90', concentration 40): 36% | % inhibition ApPOL 90' (DRC-2, 90', concentration 80): 55% | % inhibition apPOL 180' (DRC-2, 180', concentration 2.5): -8% | % inhibition apPOL 180' (DRC-2, 180', concentration 5): -14% | % inhibition apPOL 180' (DRC-2, 180', concentration 10): 1.55% | % inhibition apPOL 180' (DRC-2, 180', concentration 20): 0.368% | % inhibition apPOL 180' (DRC-2, 180', concentration 40): 25% | % inhibition apPOL 180' (DRC-2, 180', concentration 80): 51% | % inhibition Apol 40' (DRC-2; 40'; concentration 10): 14% | % inhibition Apol 40' (DRC-2; 40'; concentration 20): 14% | % inhibition Apol 40' (DRC-2; 40'; concentration 80): 51% | % inhibition ApPOL 90' (DRC-2; 90'; concentration 5): -8% | % inhibition apPOL 180' (DRC-2; 180'; concentration 2.5): -8% | % inhibition apPOL 180' (DRC-2; 180'; concentration 80): 51% | DNA Pol (primary screen value, 'DNA Pol' only; 90 min, 10 µM): 40

CCCCSc1nnc2c(n1)OC(c1ccc([N+](=O)[O-])o1)Nc1ccccc1-2 (stereo not shown) [KU0065811]
% inhibition Apo pol 10' (DRC-1; 10'; concentration 2.5): 24.76% | % inhibition Apo pol 10' (DRC-1; 10'; concentration 5): 28.8752% | % inhibition Apo pol 10' (DRC-1; 10'; concentration 10): 64.0477% | % inhibition Apo pol 10' (DRC-1; 10'; concentration 20): 79.0403% | % inhibition Apo pol 10' (DRC-1; 10'; concentration 40): 87.9065% | % inhibition Apo pol 10' (DRC-1; 10'; concentration 80): 83.2493% | % inhibition Apol 90' (DRC-1; 90'; concentration 2.5): 16.1067% | % inhibition Apol 90' (DRC-1; 90'; concentration 5): 15.8932% | % inhibition Apol 90' (DRC-1; 90'; concentration 10): 47.3098% | % inhibition Apol 90' (DRC-1; 90'; concentration 20): 63.8014% | % inhibition Apol 90' (DRC-1; 90'; concentration 40): 80.4903% | % inhibition Apol 90' (DRC-1; 90'; concentration 80): 83.7363% | % inhibition apPOL 180' (DRC-1; 180'; concentration 2.5): 8.192% | % inhibition apPOL 180' (DRC-1; 180'; concentration 5): 3.59% | % inhibition apPOL 180' (DRC-1; 180'; concentration 10): 30.0435% | % inhibition apPOL 180' (DRC-1; 180'; concentration 20): 48.0622% | % inhibition apPOL 180' (DRC-1; 180'; concentration 40): 73.3106% | % inhibition apPOL 180' (DRC-1; 180'; concentration 80): 82.0141% | % inhibition Apol 40' (DRC-2, 40', concentration 5 (unit not given)): 36% | % inhibition Apol 40' (DRC-2, 40', concentration 20 (unit not given)): 59% | % inhibition ApPOL 90' (DRC-2, 90', concentration 20 (unit not given)): 59% | % inhibition Apo pol 5' (DRC-2; 5'; concentration 2.5): 27% | % inhibition Apo pol 5' (DRC-2; 5'; concentration 5): 36% | % inhibition Apo pol 5' (DRC-2; 5'; concentration 5 (unit not given)): 36% | % inhibition Apo pol 5' (DRC-2; 5'; concentration 10): 51% | % inhibition Apo pol 5' (DRC-2; 5'; concentration 20): 47% | % inhibition Apo pol 5' (DRC-2; 5'; concentration 40): 37% | % inhibition Apo pol 5' (DRC-2; 5'; concentration 80): 13% | % inhibition Apol 40' (DRC-2; 40'; concentration 2.5): 25% | % inhibition Apol 40' (DRC-2; 40'; concentration 5): 36% | % inhibition Apol 40' (DRC-2; 40'; concentration 10): 55% | % inhibition Apol 40' (DRC-2; 40'; concentration 20): 59% | % inhibition Apol 40' (DRC-2; 40'; concentration 40): 57% | % inhibition Apol 40' (DRC-2; 40'; concentration 80): 42% | % inhibition ApPOL 90' (DRC-2; 90'; concentration 2.5): 22% | % inhibition ApPOL 90' (DRC-2; 90'; concentration 5): 32% | % inhibition ApPOL 90' (DRC-2; 90'; concentration 10): 52% | % inhibition ApPOL 90' (DRC-2; 90'; concentration 20): 59% | % inhibition ApPOL 90' (DRC-2; 90'; concentration 40): 62% | % inhibition ApPOL 90' (DRC-2; 90'; concentration 80): 50% | % inhibition apPOL 180' (DRC-2; 180'; concentration 2.5): 11% | % inhibition apPOL 180' (DRC-2; 180'; concentration 5): 19% | % inhibition apPOL 180' (DRC-2; 180'; concentration 10): 41% | % inhibition apPOL 180' (DRC-2; 180'; concentration 20): 53% | % inhibition apPOL 180' (DRC-2; 180'; concentration 40): 64% | % inhibition apPOL 180' (DRC-2; 180'; concentration 80): 58% | DNA Pol (primary screen value of the 186 hits; unit not given; 90 min, 10 µM): 52 | DNA Pol (primary screen value, head "DNA Pol", unit not given; 90 min, 10 µM): 52

CSC(C)C(=O)C=CN(C)C (stereo not shown) [Molecule 71]
IC50 (supplemental file 2, sheet IC50 nontoxic compounds; Pf-apPOL): 26.9 µM

CSC1=C(C#N)C(=C(C#N)C#N)NC(c2ccccc2)=N1 [Molecule 2, CSc1nc([nH]c(=C(C#N)C#N)c1C#N)c1ccccc1]
DNA Pol ('DNA Pol' of the 186 hits list (primary screen result); unit not given; 90 min, 10 µM): 97 | % inhibition Apo pol 10' (DRC-1; 10'; concentration 2.5): 13.8022% | % inhibition Apo pol 10' (DRC-1; 10'; concentration 5): 41.8918% | % inhibition Apo pol 10' (DRC-1; 10'; concentration 10): 81.1404% | % inhibition Apo pol 10' (DRC-1; 10'; concentration 20): 90.9481% | % inhibition Apo pol 10' (DRC-1; 10'; concentration 40): 95.8628% | % inhibition Apo pol 10' (DRC-1; 10'; concentration 80): 96.566% | % inhibition Apol 90' (DRC-1; 90'; concentration 2.5): 8.793% | % inhibition Apol 90' (DRC-1; 90'; concentration 5): 34.1727% | % inhibition Apol 90' (DRC-1; 90'; concentration 10): 79.1809% | % inhibition Apol 90' (DRC-1; 90'; concentration 20): 88.8682% | % inhibition Apol 90' (DRC-1; 90'; concentration 40): 93.6444% | % inhibition Apol 90' (DRC-1; 90'; concentration 80): 97.3798% | % inhibition apPOL 180' (DRC-1; 180'; concentration 2.5): 3.214% | % inhibition apPOL 180' (DRC-1; 180'; concentration 5): 23.1824% | % inhibition apPOL 180' (DRC-1; 180'; concentration 10): 72.8695% | % inhibition apPOL 180' (DRC-1; 180'; concentration 20): 86.4873% | % inhibition apPOL 180' (DRC-1; 180'; concentration 40): 92.4303% | % inhibition apPOL 180' (DRC-1; 180'; concentration 80): 97.316% | % inhibition Apo pol 5' (DRC-2; 5'; concentration 2.5): 8% | % inhibition Apo pol 5' (DRC-2; 5'; concentration 5): 21% | % inhibition Apo pol 5' (DRC-2; 5'; concentration 10): 38% | % inhibition Apo pol 5' (DRC-2; 5'; concentration 20): 53% | % inhibition Apo pol 5' (DRC-2; 5'; concentration 40): 57% | % inhibition Apo pol 5' (DRC-2; 5'; concentration 80): 60% | % inhibition Apol 40' (DRC-2; 40'; concentration 5): 25% | % inhibition Apol 40' (DRC-2; 40'; concentration 10): 47% | % inhibition Apol 40' (DRC-2; 40'; concentration 20): 65% | % inhibition Apol 40' (DRC-2; 40'; concentration 40): 69% | % inhibition Apol 40' (DRC-2; 40'; concentration 80): 76% | % inhibition ApPOL 90' (DRC-2; 90'; concentration 2.5): 9% | % inhibition ApPOL 90' (DRC-2; 90'; concentration 5): 22% | % inhibition ApPOL 90' (DRC-2; 90'; concentration 10): 46% | % inhibition ApPOL 90' (DRC-2; 90'; concentration 20): 66% | % inhibition ApPOL 90' (DRC-2; 90'; concentration 40): 70% | % inhibition ApPOL 90' (DRC-2; 90'; concentration 80): 79% | % inhibition apPOL 180' (DRC-2; 180'; concentration 2.5): 2.48% | % inhibition apPOL 180' (DRC-2; 180'; concentration 5): 13% | % inhibition apPOL 180' (DRC-2; 180'; concentration 10): 36% | % inhibition apPOL 180' (DRC-2; 180'; concentration 20): 61% | % inhibition apPOL 180' (DRC-2; 180'; concentration 40): 67% | % inhibition apPOL 180' (DRC-2; 180'; concentration 80): 80% | DNA Pol (primary screen value of the library well; unit not given; 90 min, 10 µM): 97
